Experimental data: PubChem BioAssay AID2060617 (Molecular Pharmacology Branch, DTP, NCI, 2025)

Tested on: 485368-065-R4-J2-PDC spheroids with HUVEC/MSC, viability
Assay: Anticancer human tumor 485368-065-R4-J2-PDC patient-derived pancreatic carcinoma cell line growth inhibition [CLK]
Conditions: for IC50: curve of first compound; for viability, T/C: stronger effect = lower value
Procedure, shortened: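 Patient-derived tumor cells grown as complex spheroids with HUVEC endothelial cells and mesenchymal stem cells, treated with drug combinations. Concentrations descend in half-log steps from near clinical Cmax, or from 10 microM if Cmax unknown.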

[1] = second compound 0.0316 µM, first compound 0.0316 µM
[2] = second compound 0.0316 µM, first compound 0.1 µM
[3] = second compound 0.0316 µM, first compound 0.316 µM
[4] = second compound 0.0316 µM, first compound 1 µM
[5] = second compound 0.0316 µM, first compound 3.16 µM
[6] = second compound 0.0316 µM, first compound 10 µM
[7] = second compound 0.1 µM, first compound 0.0316 µM
[8] = second compound 0.1 µM, first compound 0.1 µM
[9] = second compound 0.1 µM, first compound 0.316 µM
[10] = second compound 0.1 µM, first compound 1 µM
[11] = second compound 0.1 µM, first compound 3.16 µM
[12] = second compound 0.1 µM, first compound 10 µM
[13] = second compound 0.316 µM, first compound 0.0316 µM
[14] = second compound 0.316 µM, first compound 0.1 µM
[15] = second compound 0.316 µM, first compound 0.316 µM
[16] = second compound 0.316 µM, first compound 1 µM
[17] = second compound 0.316 µM, first compound 3.16 µM
[18] = second compound 0.316 µM, first compound 10 µM
[19] = second compound 1 µM, first compound 0.0316 µM
[20] = second compound 1 µM, first compound 0.1 µM
[21] = second compound 1 µM, first compound 0.316 µM
[22] = second compound 1 µM, first compound 1 µM
[23] = second compound 1 µM, first compound 3.16 µM
[24] = second compound 1 µM, first compound 10 µM
[25] = second compound 3.16 µM, first compound 0.0316 µM
[26] = second compound 3.16 µM, first compound 0.1 µM
[27] = second compound 3.16 µM, first compound 0.316 µM
[28] = second compound 3.16 µM, first compound 1 µM
[29] = second compound 3.16 µM, first compound 3.16 µM
[30] = second compound 3.16 µM, first compound 10 µM
[31] = second compound 10 µM, first compound 0.0316 µM
[32] = second compound 10 µM, first compound 0.1 µM
[33] = second compound 10 µM, first compound 0.316 µM
[34] = second compound 10 µM, first compound 1 µM
[35] = second compound 10 µM, first compound 3.16 µM
[36] = second compound 10 µM, first compound 10 µM
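Note: spheroids exposed to compounds for seven days.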
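Throughout, for viability, T/C: 100% = DMSO vehicle control wells.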

CC(=O)O[C@H]1C(=O)[C@@]2(C)[C@H]([C@H](OC(=O)c3ccccc3)[C@]3(O)C[C@H](OC(=O)[C@H](O)[C@@H](NC(=O)c4ccccc4)c4ccccc4)C(C)=C1C3(C)C)[C@]1(OC(C)=O)CO[C@@H]1C[C@@H]2O + CN1CCN(c2cc(C(=O)Nc3cc4cc(-c5cnn(C)c5)ccc4cn3)ccn2)CC1
IC50 (second compound 0.0316 µM): < 31.6 nM
IC50 (second compound 0.1 µM): < 31.6 nM
IC50 (second compound 0.316 µM): < 31.6 nM
IC50 (second compound 1 µM): < 31.6 nM
IC50 (second compound 3.16 µM): < 31.6 nM
IC50 (second compound 10 µM): < 31.6 nM
viability, T/C [1]: 49.1%
viability, T/C [2]: 41.3%
viability, T/C [3]: 38.5%
viability, T/C [4]: 46.2%
viability, T/C [5]: 39.5%
viability, T/C [6]: 55.3%
viability, T/C [7]: 37.3%
viability, T/C [8]: 39.4%
viability, T/C [9]: 30.8%
viability, T/C [10]: 36%
viability, T/C [11]: 36.8%
viability, T/C [12]: 45.2%
viability, T/C [13]: 30.7%
viability, T/C [14]: 28.5%
viability, T/C [15]: 28.2%
viability, T/C [16]: 25.4%
viability, T/C [17]: 28.7%
viability, T/C [18]: 35.5%
viability, T/C [19]: 0.77%
viability, T/C [20]: 0.76%
viability, T/C [21]: 0.7%
viability, T/C [22]: 1.78%
viability, T/C [23]: 1%
viability, T/C [24]: 1.89%
viability, T/C [25]: 2.34%
viability, T/C [26]: 2.46%
viability, T/C [27]: 1.31%
viability, T/C [28]: 2.13%
viability, T/C [29]: 1.56%
viability, T/C [30]: 3.41%
viability, T/C [31]: 1.54%
viability, T/C [32]: 2.06%
viability, T/C [33]: 2.24%
viability, T/C [34]: 1.65%
viability, T/C [35]: 2.6%
viability, T/C [36]: 1.89%

CCc1c2c(nc3ccc(O)cc13)-c1cc3c(c(=O)n1C2)COC(=O)[C@]3(O)CC + CN1CCN(c2cc(C(=O)Nc3cc4cc(-c5cnn(C)c5)ccc4cn3)ccn2)CC1
IC50 (second compound 0.0316 µM): < 3.16 nM
IC50 (second compound 0.1 µM): < 3.16 nM
IC50 (second compound 0.316 µM): < 3.16 nM
IC50 (second compound 1 µM): < 3.16 nM
IC50 (second compound 3.16 µM): < 3.16 nM
IC50 (second compound 10 µM): < 3.16 nM
viability, T/C (second compound 0.0316 µM, first compound 0.00316 µM): 38.6%
viability, T/C (second compound 0.0316 µM, first compound 0.01 µM): 20%
viability, T/C [1]: 11.3%
viability, T/C [2]: 7.09%
viability, T/C [3]: 8.74%
viability, T/C [4]: 11.7%
viability, T/C (second compound 0.1 µM, first compound 0.00316 µM): 33.3%
viability, T/C (second compound 0.1 µM, first compound 0.01 µM): 16.6%
viability, T/C [7]: 9.62%
viability, T/C [8]: 6.3%
viability, T/C [9]: 10.2%
viability, T/C [10]: 15.5%
viability, T/C (second compound 0.316 µM, first compound 0.00316 µM): 26.4%
viability, T/C (second compound 0.316 µM, first compound 0.01 µM): 12.7%
viability, T/C [13]: 8.57%
viability, T/C [14]: 8%
viability, T/C [15]: 11.9%
viability, T/C [16]: 13.1%
viability, T/C (second compound 1 µM, first compound 0.00316 µM): 2.16%
viability, T/C (second compound 1 µM, first compound 0.01 µM): 3.01%
viability, T/C [19]: 7.32%
viability, T/C [20]: 8.2%
viability, T/C [21]: 13.4%
viability, T/C [22]: 15.4%
viability, T/C (second compound 3.16 µM, first compound 0.00316 µM): 3.22%
viability, T/C (second compound 3.16 µM, first compound 0.01 µM): 5.26%
viability, T/C [25]: 11.6%
viability, T/C [26]: 11.3%
viability, T/C [27]: 14.1%
viability, T/C [28]: 13%
viability, T/C (second compound 10 µM, first compound 0.00316 µM): 2.58%
viability, T/C (second compound 10 µM, first compound 0.01 µM): 4.97%
viability, T/C [31]: 9.49%
viability, T/C [32]: 8.95%
viability, T/C [33]: 11.7%
viability, T/C [34]: 14%

Nc1ccn(C2OC(CO)C(O)C2(F)F)c(=O)n1 (stereo not drawn) + CN1CCN(c2cc(C(=O)Nc3cc4cc(-c5cnn(C)c5)ccc4cn3)ccn2)CC1
IC50 (second compound 0.0316 µM): < 31.6 nM
IC50 (second compound 0.1 µM): < 31.6 nM
IC50 (second compound 0.316 µM): < 31.6 nM
IC50 (second compound 1 µM): < 31.6 nM
IC50 (second compound 3.16 µM): < 31.6 nM
IC50 (second compound 10 µM): < 31.6 nM
viability, T/C [1]: 48.5%
viability, T/C [2]: 32.7%
viability, T/C [3]: 24.1%
viability, T/C [4]: 24.2%
viability, T/C [5]: 25.3%
viability, T/C [6]: 21.6%
viability, T/C [7]: 39.2%
viability, T/C [8]: 21.1%
viability, T/C [9]: 19.5%
viability, T/C [10]: 16.6%
viability, T/C [11]: 16.6%
viability, T/C [12]: 13.8%
viability, T/C [13]: 28.5%
viability, T/C [14]: 16.6%
viability, T/C [15]: 14.1%
viability, T/C [16]: 14.9%
viability, T/C [17]: 14.1%
viability, T/C [18]: 12.8%
viability, T/C [19]: 0.77%
viability, T/C [20]: 2.15%
viability, T/C [21]: 3.11%
viability, T/C [22]: 1.96%
viability, T/C [23]: 2.6%
viability, T/C [24]: 3.01%
viability, T/C [25]: 1.85%
viability, T/C [26]: 1.43%
viability, T/C [27]: 2.71%
viability, T/C [28]: 4.76%
viability, T/C [29]: 2.68%
viability, T/C [30]: 5.26%
viability, T/C [31]: 1.32%
viability, T/C [32]: 2.34%
viability, T/C [33]: 1.93%
viability, T/C [34]: 2.61%
viability, T/C [35]: 2.98%
viability, T/C [36]: 2.55%

O=c1[nH]cc(F)c(=O)[nH]1 + CN1CCN(c2cc(C(=O)Nc3cc4cc(-c5cnn(C)c5)ccc4cn3)ccn2)CC1
IC50 (second compound 0.0316 µM): > 10000 nM
IC50 (second compound 0.1 µM): > 10000 nM
IC50 (second compound 0.316 µM): > 10000 nM
IC50 (second compound 1 µM): < 31.6 nM
IC50 (second compound 3.16 µM): < 31.6 nM
IC50 (second compound 10 µM): < 31.6 nM
viability, T/C [1]: 99.3%
viability, T/C [2]: 108%
viability, T/C [3]: 102%
viability, T/C [4]: 112%
viability, T/C [5]: 99.6%
viability, T/C [6]: 82%
viability, T/C [7]: 106%
viability, T/C [8]: 114%
viability, T/C [9]: 115%
viability, T/C [10]: 110%
viability, T/C [11]: 114%
viability, T/C [12]: 81.8%
viability, T/C [13]: 90%
viability, T/C [14]: 89.7%
viability, T/C [15]: 87.6%
viability, T/C [16]: 91.8%
viability, T/C [17]: 101%
viability, T/C [18]: 62%
viability, T/C [19]: 1.1%
viability, T/C [20]: 1.31%
viability, T/C [21]: 0.78%
viability, T/C [22]: 0.63%
viability, T/C [23]: 0.79%
viability, T/C [24]: 1.51%
viability, T/C [25]: 1.14%
viability, T/C [26]: 2.13%
viability, T/C [27]: 1.09%
viability, T/C [28]: 1.94%
viability, T/C [29]: 1.84%
viability, T/C [30]: 2%
viability, T/C [31]: 1.01%
viability, T/C [32]: 2.05%
viability, T/C [33]: 2.31%
viability, T/C [34]: 1.29%
viability, T/C [35]: 1.06%
viability, T/C [36]: 1.21%
